# Calls of active or inactive are those of the source.
# Key:
# Estrogen receptor beta [1] = target: T1, Estrogen receptor beta (Homo sapiens, UniProt Q92731);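 further: recombinant ER-beta bound to coactivator SRC1 peptide in presence of estradiol agonist; inhibitors block coactivator peptide binding and lower the FRET signal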
# Estrogen receptor beta [2] = target: T1, Estrogen receptor beta; experiment: ERβ–SRC-3 coactivator interaction inhibitors, confirmation, orthogonal assay, biochemical, ELISA, streptavidin-HRP readout (AID 1060)
# Protein Tat = target: T2, Protein Tat (Human immunodeficiency virus type 1 group M subtype B (isolate HXB2)(HIV-1), UniProt P04608); assay type: functional;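 further: tat binding to TAR RNA read out by fluorescence polarization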
# T2 sequence (P04608 whole entry): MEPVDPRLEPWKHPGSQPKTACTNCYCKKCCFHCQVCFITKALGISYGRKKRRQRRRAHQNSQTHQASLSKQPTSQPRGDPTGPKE
# [3] = target: T3, Replicative DNA helicase DnaB (Mycobacterium tuberculosis, UniProt P9WMR3); experiment: DnaB intein splicing inhibitors, dose response, biochemical, cell-free fluorescence (AID 449749); assay type: functional
# T3 sequence (P9WMR3 whole entry): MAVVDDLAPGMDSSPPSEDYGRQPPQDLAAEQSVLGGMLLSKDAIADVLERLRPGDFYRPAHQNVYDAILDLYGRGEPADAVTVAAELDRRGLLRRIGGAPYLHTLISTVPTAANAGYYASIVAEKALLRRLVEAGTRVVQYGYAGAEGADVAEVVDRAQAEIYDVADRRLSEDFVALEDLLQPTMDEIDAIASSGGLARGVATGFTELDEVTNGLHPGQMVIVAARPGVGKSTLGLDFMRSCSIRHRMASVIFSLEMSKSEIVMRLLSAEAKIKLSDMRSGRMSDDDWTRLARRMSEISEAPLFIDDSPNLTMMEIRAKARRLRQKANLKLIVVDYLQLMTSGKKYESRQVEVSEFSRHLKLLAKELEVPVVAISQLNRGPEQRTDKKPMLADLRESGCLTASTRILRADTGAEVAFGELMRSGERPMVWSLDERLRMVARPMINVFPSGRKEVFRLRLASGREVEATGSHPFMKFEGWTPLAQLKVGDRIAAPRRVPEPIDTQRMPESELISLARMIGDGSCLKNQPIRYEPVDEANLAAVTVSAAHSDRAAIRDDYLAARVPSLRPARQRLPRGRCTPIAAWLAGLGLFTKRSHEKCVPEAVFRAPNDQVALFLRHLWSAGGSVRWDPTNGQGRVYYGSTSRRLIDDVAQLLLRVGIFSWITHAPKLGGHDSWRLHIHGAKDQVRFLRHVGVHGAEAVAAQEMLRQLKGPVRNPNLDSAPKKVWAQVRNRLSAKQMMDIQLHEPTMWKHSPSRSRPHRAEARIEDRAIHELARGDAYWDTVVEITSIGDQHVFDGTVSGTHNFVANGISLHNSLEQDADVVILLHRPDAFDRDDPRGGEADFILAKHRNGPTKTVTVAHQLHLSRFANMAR
# [4] = target: T4, Apoptotic protease-activating factor 1 (Homo sapiens, UniProt O14727); assay type: functional
# T4 sequence (O14727 whole entry): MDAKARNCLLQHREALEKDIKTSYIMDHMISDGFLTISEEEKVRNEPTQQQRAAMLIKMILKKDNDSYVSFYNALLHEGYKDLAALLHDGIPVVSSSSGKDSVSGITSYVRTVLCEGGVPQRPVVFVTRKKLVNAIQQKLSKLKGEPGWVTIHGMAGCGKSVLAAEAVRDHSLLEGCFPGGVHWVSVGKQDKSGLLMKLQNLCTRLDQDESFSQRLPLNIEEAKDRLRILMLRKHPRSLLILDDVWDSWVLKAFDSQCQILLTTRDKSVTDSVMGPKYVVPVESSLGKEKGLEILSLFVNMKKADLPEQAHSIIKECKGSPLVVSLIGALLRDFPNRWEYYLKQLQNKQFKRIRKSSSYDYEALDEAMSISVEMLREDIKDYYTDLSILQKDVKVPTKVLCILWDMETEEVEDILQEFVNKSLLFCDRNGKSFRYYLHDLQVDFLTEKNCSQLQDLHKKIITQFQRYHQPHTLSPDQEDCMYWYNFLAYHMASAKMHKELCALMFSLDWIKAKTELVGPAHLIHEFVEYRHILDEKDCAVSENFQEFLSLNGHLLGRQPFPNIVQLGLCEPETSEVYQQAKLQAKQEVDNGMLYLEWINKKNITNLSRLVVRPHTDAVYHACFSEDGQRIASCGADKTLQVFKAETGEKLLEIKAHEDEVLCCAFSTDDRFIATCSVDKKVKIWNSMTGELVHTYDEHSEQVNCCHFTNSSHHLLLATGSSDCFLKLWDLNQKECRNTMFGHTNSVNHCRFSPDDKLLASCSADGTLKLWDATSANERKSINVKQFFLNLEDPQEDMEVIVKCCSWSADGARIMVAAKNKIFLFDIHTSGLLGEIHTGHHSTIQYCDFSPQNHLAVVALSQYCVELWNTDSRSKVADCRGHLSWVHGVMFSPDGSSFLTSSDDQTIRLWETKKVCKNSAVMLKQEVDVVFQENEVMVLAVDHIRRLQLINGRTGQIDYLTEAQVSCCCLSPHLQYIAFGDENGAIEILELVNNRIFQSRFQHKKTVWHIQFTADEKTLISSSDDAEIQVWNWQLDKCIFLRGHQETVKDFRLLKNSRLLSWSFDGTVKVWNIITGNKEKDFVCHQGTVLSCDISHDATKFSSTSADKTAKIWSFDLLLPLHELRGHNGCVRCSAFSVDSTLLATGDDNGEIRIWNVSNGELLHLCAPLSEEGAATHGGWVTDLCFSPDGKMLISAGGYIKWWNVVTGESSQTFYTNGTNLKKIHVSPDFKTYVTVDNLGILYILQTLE
# Protein RecA = target: T5, Protein RecA (Mycobacterium tuberculosis, UniProt P9WHJ3); experiment: Fluorescence Cell-Free Homogeneous Dose Retest to Identify Inhibitors of RecA-Intein Splicing Activity. [Related pubchem assays (depositor defined):AID2097, AID2223, AID489010, AID492950]; assay type: functional
# T5 sequence (P9WHJ3 whole entry): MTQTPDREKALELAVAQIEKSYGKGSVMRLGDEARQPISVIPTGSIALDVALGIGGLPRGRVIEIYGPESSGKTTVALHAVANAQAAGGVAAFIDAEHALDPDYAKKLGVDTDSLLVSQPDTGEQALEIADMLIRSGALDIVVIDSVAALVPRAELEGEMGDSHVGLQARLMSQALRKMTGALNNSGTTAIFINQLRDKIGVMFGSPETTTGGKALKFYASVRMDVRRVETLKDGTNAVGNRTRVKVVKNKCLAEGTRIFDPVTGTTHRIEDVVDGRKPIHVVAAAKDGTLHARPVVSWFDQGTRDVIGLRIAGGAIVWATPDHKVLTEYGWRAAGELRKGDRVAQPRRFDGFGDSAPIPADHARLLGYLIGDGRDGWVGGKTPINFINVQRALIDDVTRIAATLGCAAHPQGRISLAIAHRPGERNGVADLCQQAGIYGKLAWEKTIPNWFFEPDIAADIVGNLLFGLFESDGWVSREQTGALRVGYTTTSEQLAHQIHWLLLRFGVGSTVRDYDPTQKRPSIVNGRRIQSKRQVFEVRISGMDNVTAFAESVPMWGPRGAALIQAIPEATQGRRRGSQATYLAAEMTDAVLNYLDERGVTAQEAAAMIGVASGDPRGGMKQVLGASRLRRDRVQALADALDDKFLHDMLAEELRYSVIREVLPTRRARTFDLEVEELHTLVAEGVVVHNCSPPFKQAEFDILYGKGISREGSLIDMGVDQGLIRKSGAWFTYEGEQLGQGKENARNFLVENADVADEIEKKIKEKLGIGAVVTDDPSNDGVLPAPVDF
# [5] = inhibitors of PGC1a acetylation in cells, dose response, cell-based, cherry-picked samples (AID 720514); assay type: functional;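 further: potency may reflect raised or lowered acetylation signal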
# [6] = miR-122 activators in hepatoma reporter cells, dose response, cell-based, Huh7 psiCHECK-miR122, Renilla luciferase, cherry-picked (AID 651956); assay type: functional;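 further: huh7 hepatoma cells stably carrying a psiCHECK-2 miR-122 sensor plasmid; renilla luciferase signal reporting endogenous miR-122 activity after 48 h compound exposure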
# [7] = HEK293T cytotoxicity, dose response, cytotoxicity control for miR-122 modulator project, cell-based, inhibitor set, cherry-pick, set 2 (AID 720697); assay type: functional
# [8] = Shn3 3'UTR reporter inhibitors, dose response, cell-based, Clone20 osteoblasts, firefly luciferase, cherry-picked (AID 624132); assay type: functional;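 further: firefly luciferase luminescence from reporter carrying the Shn3 3'UTR in osteoblasts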
# [9] = HepG2 cell cytotoxicity, dose response, cytotoxicity control for Shn3 inhibitor project, CellTiter-Glo, cherry-picked (AID 624134); assay type: functional, cell-based
# [10] = control 3'UTR Renilla luciferase suppression, dose response, counter-screen for Shn3 inhibitor project, cell-based, Clone20-Shn3RL, cherry-picked (AID 624133); assay type: functional
# [11] = Fluorescence-based cell-based high throughput dose response assay for inhibitors of the interaction of nucleotide-binding oligomerization domain containing 2 (NOD2) and the receptor-interacting serine-threonine kinase 2 (RIPK2).; assay type: functional, Homo sapiens; conditions: Homo sapiens
# [12] = HeLa cell cytotoxicity, dose response, cytotoxicity control for MgcRacGAP inhibitor project (AID 624300); assay type: functional
# [13] = target: T6, Rac GTPase-activating protein 1 (Homo sapiens, UniProt Q9H0H5); experiment: MgcRacGAP GTPase-activating activity inhibitors, confirmation, biochemical, ADP Hunter fluorescence, primary and confirmatory (AID 624330); assay type: functional
# T6 sequence (Q9H0H5 whole entry): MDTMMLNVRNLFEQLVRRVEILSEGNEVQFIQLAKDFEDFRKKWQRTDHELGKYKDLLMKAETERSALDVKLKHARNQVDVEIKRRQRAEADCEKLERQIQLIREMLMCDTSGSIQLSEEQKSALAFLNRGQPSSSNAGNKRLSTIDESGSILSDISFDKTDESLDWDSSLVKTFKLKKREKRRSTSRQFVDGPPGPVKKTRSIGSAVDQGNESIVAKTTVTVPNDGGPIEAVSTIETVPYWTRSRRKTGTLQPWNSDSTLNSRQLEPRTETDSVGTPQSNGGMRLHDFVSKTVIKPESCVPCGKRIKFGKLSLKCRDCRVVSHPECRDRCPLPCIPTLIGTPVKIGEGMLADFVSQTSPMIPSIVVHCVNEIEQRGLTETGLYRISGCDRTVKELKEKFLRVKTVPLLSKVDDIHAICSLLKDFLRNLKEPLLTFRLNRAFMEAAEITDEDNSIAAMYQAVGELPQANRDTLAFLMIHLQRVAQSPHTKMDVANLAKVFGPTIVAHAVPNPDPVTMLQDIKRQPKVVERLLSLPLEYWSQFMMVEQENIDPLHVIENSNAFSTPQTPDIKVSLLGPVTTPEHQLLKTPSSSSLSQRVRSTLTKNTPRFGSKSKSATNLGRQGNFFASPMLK
# Paired box protein Pax-8 = Paired box protein Pax-8 (Homo sapiens, UniProt Q06710); experiment: inhibitors of PAX8-driven TPO luciferase reporter, dose response, RMG-I cells, cherry-pick (AID 687027); assay type: functional, cell-based;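 further: luciferase reporter driven by Pax8 target thyroperoxidase promoter measured by SteadyGlo luminescence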
# [14] = A549 cell cytotoxicity, dose response, cytotoxicity control, plate reader, cherry-pick, antagonist series (AID 743412); assay type: functional, cell-based
# [15] = HepG2 cell cytotoxicity, dose response, cytotoxicity control, plate reader, cherry-pick, antagonist series (AID 743416); assay type: functional, cell-based
# [16] = LGR2 antagonists, dose response, cell-based, HEK293, CRE-luciferase reporter, cherry pick, set 2 (AID 743343); assay type: functional;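 further: transfected cells were stimulated with diluted bursicon conditioned medium after compound addition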
# [17] = MC4R antagonists, dose response, counter-screen for LGR2 antagonist project, cell-based, plate reader, cherry pick (AID 743444); assay type: functional;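 further: transfected HEK 293 cells stimulated with alpha-MSH peptide; potency of inhibitors of the alpha-MSH evoked signal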
# [18] = HEK293 cell cytotoxicity, dose response, cytotoxicity control, plate reader, cherry-picked samples (AID 743446); assay type: functional, cell-based
# T1 sequence (Q92731 whole entry): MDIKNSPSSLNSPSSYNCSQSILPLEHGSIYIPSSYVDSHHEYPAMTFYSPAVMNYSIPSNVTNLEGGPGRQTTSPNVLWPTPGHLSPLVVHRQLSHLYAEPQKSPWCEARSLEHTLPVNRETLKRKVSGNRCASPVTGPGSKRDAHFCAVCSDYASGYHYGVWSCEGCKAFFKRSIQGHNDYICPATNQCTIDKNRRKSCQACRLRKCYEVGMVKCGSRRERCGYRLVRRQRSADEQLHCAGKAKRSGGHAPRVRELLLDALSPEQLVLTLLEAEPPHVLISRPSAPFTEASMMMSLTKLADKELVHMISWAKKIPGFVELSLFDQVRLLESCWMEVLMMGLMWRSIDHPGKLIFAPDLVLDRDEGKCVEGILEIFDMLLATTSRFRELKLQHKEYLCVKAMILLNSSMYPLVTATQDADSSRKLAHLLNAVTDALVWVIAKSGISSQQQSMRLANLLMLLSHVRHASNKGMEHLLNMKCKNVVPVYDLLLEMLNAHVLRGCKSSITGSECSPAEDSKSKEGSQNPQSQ
# Paired box protein Pax-8, sequence (Q06710 whole entry): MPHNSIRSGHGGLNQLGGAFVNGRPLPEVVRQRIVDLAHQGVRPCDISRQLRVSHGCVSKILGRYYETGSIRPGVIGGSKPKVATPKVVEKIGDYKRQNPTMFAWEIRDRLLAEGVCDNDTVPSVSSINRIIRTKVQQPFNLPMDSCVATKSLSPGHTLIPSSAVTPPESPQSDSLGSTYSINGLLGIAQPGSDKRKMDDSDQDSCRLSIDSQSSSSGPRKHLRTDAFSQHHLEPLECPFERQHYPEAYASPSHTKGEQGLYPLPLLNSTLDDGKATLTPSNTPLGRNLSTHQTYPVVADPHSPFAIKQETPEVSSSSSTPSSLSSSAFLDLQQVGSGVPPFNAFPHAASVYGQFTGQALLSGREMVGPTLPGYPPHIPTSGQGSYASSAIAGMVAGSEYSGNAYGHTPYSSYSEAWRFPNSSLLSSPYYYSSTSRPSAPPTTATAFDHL
compound,measurement,setting,value
O=C(CSc1nnc(Nc2ccccc2F)s1)NCc1ccco1,IC50,Estrogen receptor beta [1],13.7 µM (active)
same,IC50,Estrogen receptor beta [2],0.142 µM (not active)
[O-][n+]1c2c([n+]([O-])c3cc(Br)ccc31)CCC2,IC50,Protein Tat,8.44 µM (inconclusive)
CCOc1ccc2[nH]c(=O)c(CN(Cc3ccco3)C(=O)c3ccc(Br)cc3)cc2c1,IC50,Protein Tat,> 100 µM (active)
N#CC(C(=O)Nc1ccccc1)=C1CCCCC1,IC50,Estrogen receptor beta [1],> 50 µM (not active)
NC(=O)Cc1c[nH]c2cccc(O)c12,IC50,Estrogen receptor beta [2],> 50 µM (not active)
Nc1ccc(Oc2ncccn2)cc1,AC50,[3],29.6 µM (active)
same,IC50,[4],25.7 µM (active)
same,EC50,Protein RecA,13.8 µM (active)
same,IC50,Protein Tat,> 100 µM (active)
O=S(=O)(Nc1ccc(N2CCOCC2)cc1)c1cccs1,IC50,Estrogen receptor beta [2],> 50 µM (not active)
O=C(CSc1nc2cc(Cl)ccc2s1)NCC1CCCO1 (stereo not drawn),AC50,[5],30.5 µM (active)
C[C@@H]1CCCCO[C@H](CN(C)CC2CCCCC2)[C@H](C)CN([C@H](C)CO)C(=O)c2cc(NC(=O)Nc3ccc4c(c3)OCO4)ccc2O1,AC50,[6],16.2 µM (active)
same,AC50,[7],4.39 µM (active)
COc1cccc(CN2C[C@@H]3N[C@H](C2)[C@@H]3c2ccc(-c3ccccc3OC)cc2)c1,AC50,[5],28.5 µM (active)
CCC1CN2CCc3cc(OC)c(OC)cc3C2CC1CC1NCCc2c1[nH]c1ccc(O)cc21 (stereo not drawn),AC50,[8],< 0.26 µM (active)
same,AC50,[9],18 µM (active)
same,AC50,[10],0.658 µM (active)
same,IC50,[11],49.8 µM (inactive)
same,CC50,[12],1.61 µM (active)
same,IC50,[13],70.2 µM (active)
same,AC50,Paired box protein Pax-8,< 0.26 µM (active)
same,AC50,[5],0.471 µM (active)
same,AC50,[14],0.075 µM (active)
same,AC50,[15],0.601 µM (active)
same,AC50,[16],0.219 µM (active)
same,AC50,[17],0.209 µM (active)
same,AC50,[18],0.153 µM (active)
